From patent US8129417B2, “Substituted octahydrocyclopenta[C]pyrrol-4-amines as calcium channel blockers” (Abbott Laboratories, priority 2008, dated 2012) come the findings set out here.

The structures appear in SMILES notation.

Sequence of human Cav2.2 (Q00975 whole entry): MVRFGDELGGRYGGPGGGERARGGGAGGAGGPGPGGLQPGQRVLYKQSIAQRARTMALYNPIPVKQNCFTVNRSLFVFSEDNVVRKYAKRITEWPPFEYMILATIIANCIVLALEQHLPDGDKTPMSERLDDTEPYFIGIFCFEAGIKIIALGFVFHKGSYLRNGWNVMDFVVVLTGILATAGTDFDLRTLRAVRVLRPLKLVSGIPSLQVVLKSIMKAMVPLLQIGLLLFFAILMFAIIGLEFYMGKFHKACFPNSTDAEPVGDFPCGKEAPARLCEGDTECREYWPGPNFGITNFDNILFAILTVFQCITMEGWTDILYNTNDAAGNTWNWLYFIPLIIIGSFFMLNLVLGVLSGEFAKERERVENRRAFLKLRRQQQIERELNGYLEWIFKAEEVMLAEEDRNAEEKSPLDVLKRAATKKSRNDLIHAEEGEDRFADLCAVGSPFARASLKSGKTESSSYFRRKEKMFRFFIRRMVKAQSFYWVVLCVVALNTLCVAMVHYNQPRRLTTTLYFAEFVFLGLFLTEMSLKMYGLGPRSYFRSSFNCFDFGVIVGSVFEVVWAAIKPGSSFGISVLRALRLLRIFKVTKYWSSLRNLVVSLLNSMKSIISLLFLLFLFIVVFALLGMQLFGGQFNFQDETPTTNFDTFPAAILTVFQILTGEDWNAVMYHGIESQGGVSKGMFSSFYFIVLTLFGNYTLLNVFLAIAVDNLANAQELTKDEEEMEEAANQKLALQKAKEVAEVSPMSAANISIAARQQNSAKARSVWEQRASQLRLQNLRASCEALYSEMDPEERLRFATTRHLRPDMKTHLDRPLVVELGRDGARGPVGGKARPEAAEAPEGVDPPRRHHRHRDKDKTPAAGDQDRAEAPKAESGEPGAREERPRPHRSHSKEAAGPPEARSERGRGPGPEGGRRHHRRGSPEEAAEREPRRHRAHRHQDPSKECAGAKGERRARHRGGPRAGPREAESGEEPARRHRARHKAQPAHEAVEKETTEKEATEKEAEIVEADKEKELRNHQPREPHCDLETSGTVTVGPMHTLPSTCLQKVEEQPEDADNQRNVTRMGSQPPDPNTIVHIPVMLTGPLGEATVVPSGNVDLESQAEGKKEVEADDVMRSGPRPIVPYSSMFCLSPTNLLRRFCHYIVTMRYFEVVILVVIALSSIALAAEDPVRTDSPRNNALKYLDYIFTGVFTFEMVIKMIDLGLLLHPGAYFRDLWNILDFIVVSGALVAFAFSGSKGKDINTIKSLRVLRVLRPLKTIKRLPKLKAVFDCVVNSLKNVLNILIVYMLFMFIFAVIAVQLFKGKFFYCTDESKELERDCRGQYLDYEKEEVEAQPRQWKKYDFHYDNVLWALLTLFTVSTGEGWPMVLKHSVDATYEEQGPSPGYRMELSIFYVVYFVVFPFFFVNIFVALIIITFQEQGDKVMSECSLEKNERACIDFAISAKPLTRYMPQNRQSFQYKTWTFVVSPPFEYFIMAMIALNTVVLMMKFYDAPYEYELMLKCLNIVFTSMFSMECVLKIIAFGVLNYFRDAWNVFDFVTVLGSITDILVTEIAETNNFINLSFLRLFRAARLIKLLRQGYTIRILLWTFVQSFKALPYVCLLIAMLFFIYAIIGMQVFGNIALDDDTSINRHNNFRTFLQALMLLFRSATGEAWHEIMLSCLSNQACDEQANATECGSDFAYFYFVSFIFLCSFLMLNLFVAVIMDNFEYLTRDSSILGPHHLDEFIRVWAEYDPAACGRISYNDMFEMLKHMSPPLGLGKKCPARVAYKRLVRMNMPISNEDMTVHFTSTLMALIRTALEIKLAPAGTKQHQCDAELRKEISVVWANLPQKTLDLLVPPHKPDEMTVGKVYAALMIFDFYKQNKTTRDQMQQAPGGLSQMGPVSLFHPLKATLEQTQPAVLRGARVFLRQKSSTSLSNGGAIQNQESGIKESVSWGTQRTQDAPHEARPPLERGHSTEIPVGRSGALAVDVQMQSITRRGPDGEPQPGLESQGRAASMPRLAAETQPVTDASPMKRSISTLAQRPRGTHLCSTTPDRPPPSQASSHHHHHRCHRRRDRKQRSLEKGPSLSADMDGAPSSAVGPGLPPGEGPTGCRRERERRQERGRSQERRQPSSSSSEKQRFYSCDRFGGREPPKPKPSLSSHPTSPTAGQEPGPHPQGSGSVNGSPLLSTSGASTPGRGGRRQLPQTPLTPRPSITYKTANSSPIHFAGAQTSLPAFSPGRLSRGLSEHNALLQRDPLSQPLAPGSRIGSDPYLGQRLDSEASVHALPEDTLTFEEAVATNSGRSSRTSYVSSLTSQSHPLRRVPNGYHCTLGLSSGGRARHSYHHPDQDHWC
Sequence of human Cav2.2 (P54289 25-946 partner limits assumed): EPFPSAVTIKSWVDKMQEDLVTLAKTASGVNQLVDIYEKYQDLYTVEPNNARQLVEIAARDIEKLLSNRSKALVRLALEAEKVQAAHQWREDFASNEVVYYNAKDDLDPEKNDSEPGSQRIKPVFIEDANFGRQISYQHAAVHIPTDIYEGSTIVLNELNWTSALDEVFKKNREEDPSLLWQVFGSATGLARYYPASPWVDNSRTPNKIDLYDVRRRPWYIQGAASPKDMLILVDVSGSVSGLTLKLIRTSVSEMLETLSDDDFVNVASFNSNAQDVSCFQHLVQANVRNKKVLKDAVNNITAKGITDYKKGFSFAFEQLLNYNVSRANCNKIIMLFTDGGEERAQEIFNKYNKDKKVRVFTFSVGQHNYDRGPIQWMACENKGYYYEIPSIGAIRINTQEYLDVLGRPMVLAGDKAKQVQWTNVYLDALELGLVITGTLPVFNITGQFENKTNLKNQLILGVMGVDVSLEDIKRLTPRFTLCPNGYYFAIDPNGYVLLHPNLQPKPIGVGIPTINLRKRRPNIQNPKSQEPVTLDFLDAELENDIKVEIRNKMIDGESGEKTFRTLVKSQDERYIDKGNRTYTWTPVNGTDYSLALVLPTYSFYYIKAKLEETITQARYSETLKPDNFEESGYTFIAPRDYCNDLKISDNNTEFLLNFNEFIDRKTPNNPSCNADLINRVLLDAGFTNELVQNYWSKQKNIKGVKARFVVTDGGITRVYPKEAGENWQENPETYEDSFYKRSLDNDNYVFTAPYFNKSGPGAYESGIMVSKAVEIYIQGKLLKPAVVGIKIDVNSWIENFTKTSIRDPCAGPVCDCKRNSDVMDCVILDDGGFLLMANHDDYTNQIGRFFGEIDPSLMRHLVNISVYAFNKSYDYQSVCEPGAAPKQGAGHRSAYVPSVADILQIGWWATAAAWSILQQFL
Sequence of human Cav2.2 (P54289 947-1103 partner limits assumed): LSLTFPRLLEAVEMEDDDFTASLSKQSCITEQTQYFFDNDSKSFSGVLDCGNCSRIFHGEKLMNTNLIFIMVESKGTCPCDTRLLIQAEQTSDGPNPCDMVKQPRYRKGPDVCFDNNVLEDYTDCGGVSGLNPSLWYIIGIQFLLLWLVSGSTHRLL
Sequence of human Cav2.2 (P54284 whole entry partner): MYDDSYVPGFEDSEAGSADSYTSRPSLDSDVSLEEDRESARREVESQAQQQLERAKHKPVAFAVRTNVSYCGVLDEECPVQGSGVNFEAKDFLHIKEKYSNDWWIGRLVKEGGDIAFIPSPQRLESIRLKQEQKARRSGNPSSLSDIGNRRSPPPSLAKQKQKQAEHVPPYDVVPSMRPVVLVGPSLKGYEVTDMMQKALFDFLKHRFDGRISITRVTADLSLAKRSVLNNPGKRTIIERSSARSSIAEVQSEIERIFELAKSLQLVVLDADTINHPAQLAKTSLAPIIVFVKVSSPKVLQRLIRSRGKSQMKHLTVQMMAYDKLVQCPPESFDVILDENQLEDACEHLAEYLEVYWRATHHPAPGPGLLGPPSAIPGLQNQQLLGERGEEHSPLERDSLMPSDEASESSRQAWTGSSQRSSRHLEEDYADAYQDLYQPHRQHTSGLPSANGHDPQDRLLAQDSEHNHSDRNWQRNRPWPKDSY

One assay concerns the target human Cav2.2 (Homo sapiens, UniProt Q00975). Put plainly: Assessment of calcium channel activity using FLIPR (Ca2+ influx in IMR32 cells). Type of assay: cell-based. To be noted: 60 minute pre-incubation with compound, 2 μM nifedipine, depolarized with 80 mM KCl. Put shortly: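 IC50 came from sigmoidal non-linear regression of percent inhibition, relative to uninhibited activity, across compound concentrations. Calcium influx was measured by FLIPR in IMR32 cells plated at 1-1.2×10^5 cells/well and cultured 48 h at 37 °C.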
What is called IC50 is the concentration that gives 50% inhibition. Regarding `CC(C)C[C@@H](C(=O)N[C@H]1CC[C@H]2CN(Cc3cccc(C(F)(F)F)c3)C[C@H]21)N(C)C(=O)OC(C)(C)C` [Example 153, N^2-(tert-butyloxycarbonyl)-N^2-methyl-N^1-{(3aS,4S,6aR)-2-[3-(trifluoromethyl)benzyl]octahydrocyclopenta[c]pyrrol-4-yl}-L-leucinamide], the IC50 came out at 0.4 µM.

On to `CC(=O)N(C)[C@@H](CC(C)C)C(=O)N[C@H]1CC[C@H]2CN(Cc3cccc(C(F)(F)F)c3)C[C@H]21` [Example 175, N^2-acetyl-N^2-methyl-N^1-{(3aS,4S,6aR)-2-[3-(trifluoromethyl)benzyl]octahydrocyclopenta[c]pyrrol-4-yl}-L-leucinamide], for which the half-inhibitory concentration (IC50) stood at 1.5 µM.

Regarding `O=S(=O)(N[C@@H]1CC[C@@H]2CN(Cc3cccc(C(F)(F)F)c3)C[C@@H]21)c1cccc(C(F)(F)F)c1` [Example 188, 3-(trifluoromethyl)-N-{(3aR,4R,6aS)-2-[3-(trifluoromethyl)benzyl]octahydrocyclopenta[c]pyrrol-4-yl}benzenesulfonamide], the IC50 amounted to 0.8 µM.

For `O=S(=O)(N[C@@H]1CC[C@H]2CN(Cc3ccccc3)C[C@H]21)c1cccc(C(F)(F)F)c1` [Example 190, N-[(3aS,4R,6aR)-2-benzyloctahydrocyclopenta[c]pyrrol-4-yl]-3-(trifluoromethyl)benzenesulfonamide], the IC50 amounted to 1.3 µM.

As for `O=S(=O)(N[C@@H]1CC[C@H]2CN(Cc3ccc(C(F)(F)F)c(F)c3)C[C@H]21)c1cccc(C(F)(F)F)c1` [Example 194, N-{(3aS,4R,6aR)-2-[3-fluoro-4-(trifluoromethyl)benzyl]octahydrocyclopenta[c]pyrrol-4-yl}-3-(trifluoromethyl)benzenesulfonamide], the IC50 was 1.4 µM.

On to `O=C(N[C@H]1CC[C@H]2CN(S(=O)(=O)c3cccc(C(F)(F)F)c3)C[C@H]21)C(C1CCCCC1)C1CCCCC1` [Example 205, 2,2-dicyclohexyl-N-((3aS,4S,6aR)-2-{[3-(trifluoromethyl)phenyl]sulfonyl}octahydrocyclopenta[c]pyrrol-4-yl)acetamide], for which the IC50 came out at 3.4 µM.

On to `O=C(N[C@H]1CC[C@H]2CN(S(=O)(=O)CCc3ccccc3)C[C@H]21)C(C1CCCCC1)C1CCCCC1` [Example 206, 2,2-dicyclohexyl-N-{(3aS,4S,6aR)-2-[(2-phenylethyl)sulfonyl]octahydrocyclopenta[c]pyrrol-4-yl}acetamide], for which the half-maximal inhibitory concentration (IC50) is more than 100 µM.

On to `O=C(N[C@H]1CC[C@H]2CN(S(=O)(=O)CCc3cccc4ccccc34)C[C@H]21)C(C1CCCCC1)C1CCCCC1` [Example 207, 2,2-dicyclohexyl-N-((3aS,4S,6aR)-2-{[2-(1-naphthyl)ethyl]sulfonyl}octahydrocyclopenta[c]pyrrol-4-yl)acetamide], for which the IC50 was more than 100 µM.

In the case of `O=C(N[C@H]1CC[C@H]2CN(S(=O)(=O)Cc3cccc(C(F)(F)F)c3)C[C@H]21)C(C1CCCCC1)C1CCCCC1` [Example 208, 2,2-dicyclohexyl-N-((3aS,4S,6aR)-2-{[3-(trifluoromethyl)benzyl]sulfonyl}octahydrocyclopenta[c]pyrrol-4-yl)acetamide], the concentration for half-maximal inhibition (IC50) is more than 100 µM.

As for `O=C(N[C@H]1CC[C@H]2CN(S(=O)(=O)CCc3ccc(F)cc3)C[C@H]21)C(C1CCCCC1)C1CCCCC1` [Example 209, 2,2-dicyclohexyl-N-((3aS,4S,6aR)-2-{[2-(4-fluorophenyl)ethyl]sulfonyl}octahydrocyclopenta[c]pyrrol-4-yl)acetamide], the IC50 is more than 100 µM.

As to `CC(C)C[C@H](NC(=O)OC(C)(C)C)C(=O)N[C@H]1CC[C@@H]2CN(Cc3ccccc3)C[C@@H]21` [Example 221, tert-butyl(S)-1-((3aR,4S,6aS)-2-benzyloctahydrocyclopenta[c]pyrrol-4-ylamino)-4-methyl-1-oxopentan-2-ylcarbamate], the IC50 worked out at 3.93 µM.

For the molecule `CC(C)C[C@@H](C(=O)N[C@H]1CC[C@@H]2CN(Cc3ccccc3)C[C@@H]21)N(C)C(=O)OC(C)(C)C` [Example 222, tert-butyl(S)-1-((3aR,4S,6aS)-2-benzyloctahydrocyclopenta[c]pyrrol-4-ylamino)-4-methyl-1-oxopentan-2-yl(methyl)carbamate], the IC50 was determined as 2.05 µM.

Regarding `CCN(C(=O)OC(C)(C)C)[C@@H](CC(C)C)C(=O)N[C@H]1CC[C@@H]2CN(Cc3ccccc3)C[C@@H]21` [Example 223, tert-butyl(S)-1-((3aR,4S,6aS)-2-benzyloctahydrocyclopenta[c]pyrrol-4-ylamino)-4-methyl-1-oxopentan-2-yl(ethyl)carbamate], the IC50 came to 2.06 µM.

`CC[C@H](C)[C@@H](C(=O)N[C@H]1CC[C@@H]2CN(Cc3ccccc3)C[C@@H]21)N(C)C(=O)OC(C)(C)C` [Example 224, tert-butyl(2S,3S)-1-((3aR,4S,6aS)-2-benzyloctahydrocyclopenta[c]pyrrol-4-ylamino)-3-methyl-1-oxopentan-2-yl(methyl)carbamate]: the IC50 was 4.64 µM.

With `CC(C)(C)C[C@H](NC(=O)OC(C)(C)C)C(=O)N[C@H]1CC[C@@H]2CN(Cc3ccccc3)C[C@@H]21` [Example 226, tert-butyl(S)-1-((3aR,4S,6aS)-2-benzyloctahydrocyclopenta[c]pyrrol-4-ylamino)-4,4-dimethyl-1-oxopentan-2-ylcarbamate], the IC50 amounted to 4.06 µM.

`CCCC[C@@H](C(=O)N[C@H]1CC[C@@H]2CN(Cc3ccccc3)C[C@@H]21)N(C)C(=O)OC(C)(C)C` [Example 227, tert-butyl(S)-1-((3aR,4S,6aS)-2-benzyloctahydrocyclopenta[c]pyrrol-4-ylamino)-1-oxohexan-2-yl(methyl)carbamate]: the IC50 turned out to be 3.17 µM.

Take `O=C(N[C@H]1CC[C@@H]2CN(Cc3ccccc3)C[C@@H]21)C(c1ccc(F)cc1)c1ccc(F)cc1` [Example 228, N-[(3aR,4S,6aS)-2-benzyloctahydrocyclopenta[c]pyrrol-4-yl]-2,2-bis(4-fluorophenyl)acetamide]: the IC50 was determined as 2.09 µM.

Turning to `CC(C)[C@@H](C(=O)N[C@@H]1CC[C@H]2CN(Cc3ccccc3)C[C@H]21)N(C)C(=O)OC(C)(C)C` [Example 232, tert-butyl(S)-1-((3aS,4R,6aR)-2-benzyloctahydrocyclopenta[c]pyrrol-4-ylamino)-3-methyl-1-oxobutan-2-yl(methyl)carbamate], the IC50 was 3.6 µM.

Take `CC(C)(C)OC(=O)N[C@H](C(=O)N[C@@H]1CC[C@H]2CN(Cc3ccccc3)C[C@H]21)C(C)(C)C` [Example 234, tert-butyl(S)-1-((3aS,4R,6aR)-2-benzyloctahydrocyclopenta[c]pyrrol-4-ylamino)-3,3-dimethyl-1-oxobutan-2-ylcarbamate]: the 50% inhibitory concentration (IC50) was 7.4 µM.

With `CC(C)C(C(=O)N[C@@H]1CC[C@H]2CN(Cc3ccccc3)C[C@H]21)C(C)C` [Example 235, N-[(3aS,4R,6aR)-2-benzyloctahydrocyclopenta[c]pyrrol-4-yl]-2-isopropyl-3-methylbutanamide], the IC50 is 14.2 µM.

With `O=C(N[C@H]1CC[C@H]2CN(Cc3cccc(C(F)(F)F)c3)C[C@H]21)C(O)C1CCCCC1` (stereo partly drawn) [Example 237, 2-cyclohexyl-2-hydroxy-N-{(3aS,4S,6aR)-2-[3-(trifluoromethyl)benzyl]octahydrocyclopenta[c]pyrrol-4-yl}acetamide], the IC50 was determined as 1.88 µM.

Turning to `CCC[C@@H](C(=O)N[C@H]1CC[C@H]2CN(Cc3ccccc3)C[C@H]21)N(C)C(=O)OC(C)(C)C` [Example 238, tert-butyl(S)-1-((3aS,4S,6aR)-2-benzyloctahydrocyclopenta[c]pyrrol-4-ylamino)-1-oxopentan-2-yl(methyl)carbamate], the IC50 amounted to 5.73 µM.

Consider `CCC[C@@H](C(=O)N[C@@H]1CC[C@@H]2CN(Cc3ccccc3)C[C@@H]21)N(C)C(=O)OC(C)(C)C` [Example 240, tert-butyl(S)-1-((3aR,4R,6aS)-2-benzyloctahydrocyclopenta[c]pyrrol-4-ylamino)-1-oxopentan-2-yl(methyl)carbamate], for which the IC50 was found to be 2.67 µM.

As to `CC(C)C[C@H](NS(C)(=O)=O)C(=O)N[C@H]1CC[C@@H]2CN(Cc3ccccc3)C[C@@H]21` [Example 242, N^1-[(3aR,4S,6aS)-2-benzyloctahydrocyclopenta[c]pyrrol-4-yl]-N^2-(methylsulfonyl)-L-leucinamide], the IC50 amounted to 7.92 µM.

As for `CC(C)C[C@H](NCC(C)(C)C)C(=O)N[C@@H]1CC[C@H]2CN(Cc3ccccc3)C[C@H]21` [Example 245, N^1-[(3aS,4R,6aR)-2-benzyloctahydrocyclopenta[c]pyrrol-4-yl]-N^2-neopentyl-L-leucinamide], the IC50 amounted to 8.08 µM.

For `CN(C(=O)OC(C)(C)C)[C@@H](CC(C)(C)C)C(=O)N[C@H]1CC[C@@H]2CN(Cc3ccccc3)C[C@@H]21` [Example 247, tert-butyl(S)-1-((3aR,4S,6aS)-2-benzyloctahydrocyclopenta[c]pyrrol-4-ylamino)-4,4-dimethyl-1-oxopentan-2-yl(methyl)carbamate], the half-inhibitory concentration (IC50) stood at 3.62 µM.

Still in this assay, the particulars now being: IMR-32, @ 10 μM, 3 minute pre-incubation (*), read-out: percent inhibition.
Broadly, the inhibition is the relative decrease from the control value, in per cent. `CC[C@H](C(=O)N[C@@H]1CC[C@@H]2CN([C@@H](C)c3ccccc3)C[C@@H]21)c1ccccc1` [Example 210, (2S)-2-phenyl-N-{(3aR,4R,6aS)-2-[(1S)-1-phenylethyl]octahydrocyclopenta[c]pyrrol-4-yl}butanamide]: the inhibition at 10 µM turned out to be 76%.

Turning to `CC[C@H](C(=O)N[C@@H]1CC[C@H]2CN([C@@H](C)c3ccccc3)C[C@H]21)c1ccccc1` [Example 213, (2S)-2-phenyl-N-{(3aS,4R,6aR)-2-[(1S)-1-phenylethyl]octahydrocyclopenta[c]pyrrol-4-yl}butanamide], the inhibition at 10 µM is 60%.

With `CC(C)C(C(=O)N[C@H]1CC[C@@H]2CN(C(=O)c3ccccc3)C[C@@H]21)c1ccccc1` (stereo partly drawn) [Example 218, N-[(3aR,4S,6aS)-2-benzoyloctahydrocyclopenta[c]pyrrol-4-yl]-3-methyl-2-phenylbutanamide], the inhibition at 10 µM amounted to 56%.

With `CC(C)N(C(=O)N[C@H]1CC[C@@H]2CN(Cc3ccccc3)C[C@@H]21)c1ccccc1` [Example 219, N′-[(3aR,4S,6aS)-2-benzyloctahydrocyclopenta[c]pyrrol-4-yl]-N-isopropyl-N-phenylurea], the inhibition at 10 µM worked out at 63%.
